IC50 data for three molecules are collected here from ChEMBL document CHEMBL1128657, “Synthesis and in vitro biological evaluation of new triphenylethylene platinum (II) complexes” (Bioorg Med Chem Lett, 1995).

pIC50: −log10 of the molar value.

Assay [1] has as its system MCF7. Put plainly: In vitro inhibition of estrogen receptor positive MCF-7 human mammary carcinoma cell proliferation. The class given is functional, cell-based.
The test system of assay [2] is MDA-MB-231. Put plainly: In vitro inhibition of estrogen receptor negative […] human mammary carcinoma cell proliferation. The class given is functional, cell-based.

On to `COc1ccc(C(=C(CCCCCCCCCCCNCCN)c2ccccc2)c2ccc(OC)cc2)cc1`, for which the pIC50 – broadly, −log10 of the IC50, conventionally taken in molar units – in assay [1] (Homo sapiens, MCF7) was 4.85; in assay [2] (Homo sapiens, MDA-MB-231) it was 5.64.

In the case of `CC/C(=C(\c1ccccc1)c1ccc(OCCN(C)C)cc1)c1ccccc1` [TAMOXIFEN], the pIC50 in assay [1] (Homo sapiens, MCF7) was 4.77; in assay [2] (Homo sapiens, MDA-MB-231), 4.55.

For the molecule CISPLATIN, the values for the negative logarithm of the IC50 (pIC50) in assay [1] (mcf7) and in assay [2] (mda-mb-231) were 5.52 and 5.47, respectively.
